# Test results published in patent US20080262088A1, “METHODS, COMPOUNDS, AND COMPOSITIONS FOR TREATING METABOLIC DISORDERS AND DIABETES” (priority 2006, published 2008).
# What was measured:
# [1] = test system: patients with AA amyloidosis; conditions: previously tested clinically in patients with AA amyloidosis; cited from earlier work
# [2] = test system: Zucker Diabetic Fatty rat (ZDF); experiment: Kidney histology (glomerular global score) in ZDF rats; format: in vivo; conditions: after 12 weeks
# Text: FIG. 7 is a bar graph showing glomerular global score for control and treated satient Zucker diabetic obese male rats after 12 weeks, according to Example 11(a). Categories: (−) no global score; (±) mild global score; (+) mild to moderate global score; (++) moderate global score.
# (§1) Thirty-two, 6 week-old male ZDF rats (Charles River, St. Constant, Canada) were randomized in 2 groups, Treated (PDS; in 1% sucrose drinking solution) and Control (1% sucrose drinking solution), and studied for a period of 12 weeks. […] All rats were fed a high fat/high sucrose diabetogenic diet (Harlan™ TD95217). Body weight, food and drinking solution consumption were measured on a daily basis. Twelve rats from each group were individually housed in metabolic cages for a period of 24 hours once a week. […] At the end of each metabolic cage session, urine output was measured, and blood and urine samples were collected in order to quantify serum and/or urine levels of PDS, creatinine, protein, uric acid, triglycerides, glucose, and electrolytes. […]
# Histology was performed on both controls and PDS-treated animals. […] The global score was calculated by summing up the number of observations for each histological parameter (mesangial matrix expansion, glomerular cell proliferation, basement membrane thickening, and glomerular enlargement). […]
# [3] = test system: Peroxisome proliferator-activated receptor gamma (PPARG); experiment: Kidney gene expression, Gene Chip Rat Exon 1.0 ST Array; format: in vivo; conditions: pooled whole kidney RNA, treated vs controls
# Procedure: The effect of the PDS treatment on kidney gene expression was also measured. Briefly, whole kidney RNA was isolated and pooled from 2-4 individual rats from each group (controls and treated group). The polled RNA was then processed using a Gene Chip Rat Exon 1.0 ST Array™ (Affimetrix) according to the manufacturer's standard procedure and analyzed for differential expression between the two groups on gene and exon levels. […] PPARG is a well known transcriptional regulator that regulates lipid, glucose and amino acid metabolism, and this receptor is the main target of the thiazolidinediones used in diabetes mellitus and other diseases that feature insulin resistance.
# [4] = test system: SHR rats; experiment: In vivo preventive study of pancreatic function in SHR rats (streptozotocine, OGTT); set-up: species or system rat; conditions: low dose streptozotocine after initiation of treatment, PDS vs vehicle
# Procedure: SHR rats are non-diabetic rats but having insulin resistance. Rats are divided in two groups which are administered PDS or vehicle respectively. After initiation of treatment, all rats are administered streptozotocine at low dose with the aim to chemically destroy a portion of Langerhans islets. Both treated and control rats are challenged by an Oral Glucose Tolerance Test (OGTT) and glucose levels are measured.
# [5] = test system: Zucker Diabetic Fatty rat (ZDF); experiment: Effect on pancreatic function in ZDF rats (satient insulin, glycemia, diuresis); format: in vivo
# Procedure: (§2) Thirty-two, 6 week-old male ZDF rats (Charles River, St. Constant, Canada) were randomized in 2 groups, Treated (PDS; in 1% sucrose drinking solution) and Control (1% sucrose drinking solution), and studied for a period of 12 weeks. […] All rats were fed a high fat/high sucrose diabetogenic diet (Harlan™ TD95217). Body weight, food and drinking solution consumption were measured on a daily basis. Twelve rats from each group were individually housed in metabolic cages for a period of 24 hours once a week. During week 2, 3, 4 and 5, rats placed in metabolic cages received drinking solution but were placed in fasting condition, whereas during weeks 1, […], 6 to 12, rats were given ad libitum access to food and drinking solution. At the end of each metabolic cage session, urine output was measured, and blood and urine samples were collected in order to quantify serum and/or urine levels of PDS, creatinine, protein, uric acid, triglycerides, glucose, and electrolytes. These variables were used to calculate creatinine clearance (Ccr) and proteinuria, and to evaluate general metabolic and renal health status. At the end of the study, the animals were sacrificed and selected organs were kept for further analysis (e.g. weighing, histology).
# As is known, diabetes may be due to a lack of insulin secretion (type I diabetes), or to a resistance of peripheral tissues to insulin action (more insulin is needed to decrease blood glucose to the same level as controls in the same amount of time; type II diabetes). The Zucker obese diabetic rat employed in this study is a model of insulin resistance. Hyperglycemia is almost always observed in this model, despite the initially very high circulating insulin levels that fall down with the progression of the disease due to pancreatic beta cell exhaustion. A beneficial treatment is expected to increase insulin secretion, decrease glucose levels by other means or increase glucose utilization by peripheral tissues.
# Results for each time point are represented as median and mean ± SEM. Trend statistics are calculated by two-way ANOVA with or without repeated measures, with p<0.05 considered statistically significant.
# [6] = test system: Zucker Diabetic Fatty rat (ZDF); experiment: In vivo preventive study of renal function and metabolic status in ZDF rats (serum/urine chemistry, body and organ weights)
# Text: The compound 1,3 Propanedisulfonic Acid Disodium Salt (PDS) was selected for a preventive study of renal function in the Zucker rat (ZDF) model as well as its effect on metabolic status and diabetes.
# A leading study model for DN is the inbred Zucker Diabetic Fatty rat (ZDF). Given a diabetogenic diet, the ZDF rat will closely mimic human adult onset diabetes (Type 2) and related complications including glomerulosclerosis and renal damage earlier than when fed a normal diet (i.e. 14-18 weeks of age). In addition, obesity, mild hypertension, hypertriglyceridemia, hypercholesterolemia, fasting hyperglycemia, impaired glucose tolerance and hyperinsulinemia, are all major phenotypes featured in the ZDF rat.
# as §2
# This pre-clinical investigation evaluates the role and efficacy of compound 1,3-Propanedisulfonic Acid Disodium Salt (PDS) (Eprodisate Disodium) as a preventive treatment for DN and related pathophysiology in the ZDF rat model. The primary measured outcome is the attenuation/reversal of creatinine clearance deterioration and of proteinuria. The secondary measured outcome is the impact on the metabolic status in this model.
# Results for each time point are represented as median or mean ± SEM. Trend statistics are calculated by two-way ANOVA with or without repeated measures, with p<0.05 considered statistically significant.
# [7] = test system: Zucker Diabetic Fatty rat (ZDF); experiment: Histology of the pancreas in ZDF rats (islets of Langerhans per field); format: in vivo; conditions: week 12, significant difference, FIG. 11
# Text: FIG. 11 is a box graph showing distribution of number of islets of Langerhans per field counted during histology of the pancreas from control and treated Zucker diabetic obese male rats at week 12, according to Example 11(b). Box plot lower limit represents the 25th percentile, whereas higher limit represents 75th percentile. Whiskers above and below indicate 90th and 10th percentiles, and median and mean values are represented by solid and dashed lines respectively.
# as §1
# [8] = end of 12-week study, not shown
compound,measurement,setting,value
"O=S(=O)(O)CCCS(=O)(=O)O [1,3-propanedisulfonic acid]",safety in humans,[1],can be safely used in humans
"O=S(=O)([O-])CCCS(=O)(=O)[O-].[Na+].[Na+] [PDS, 1,3 Propanedisulfonic Acid Disodium Salt]",glomerular global score (histology),"[2]; p=0.001, FIG. 7, sum of mesangial matrix expansion, glomerular cell proliferation, basement membrane thickening, glomerular enlargement",lowest scores
same,"kidney pathology (histology), treated vs control",[2]; not shown separately,less pathology
same,"PPARG gene expression in kidney, increase in treatment group",[3],1.85 fold
same,number of genes down regulated in the treatment group,[3]; not shown,43 genes
same,number of genes up regulated in the treatment group,[3]; not shown,75 genes
same,glucose levels after Oral Glucose Tolerance Test (OGTT),[4],lower glucose levels than control
same,"glycemia, serum glucose by hexokinase (HK) II method, PDS-treated vs control","[5]; by week 10, p<0.001, FIG. 9A",significantly lower
same,"glycemia, capillary blood glucose by glucose meter kit, PDS-treated vs control","[5]; by week 10, p=0.002, FIG. 9B",significantly lower
same,"satient serum insulin (RIA), PDS-treated vs control","[5]; end of the experiment (12 weeks), fed animals, FIG. 8",more than twice as high
same,"diuresis (urine production), PDS-treated vs control","[5]; from week 9, FIG. 10",lower
same,"creatinine clearance (body weight corrected), treated vs control","[6]; 12 weeks of treatment, FIG. 2B, slight tendency to be higher weeks 6-8",no significant difference
same,"clearance of uric acid, treated vs control","[6]; FIG. 4B, body weight corrected",better in treated animals
same,"proteinuria (urine protein content), treated vs control","[6]; after 8 weeks measurable effect, difference significant at weeks ten and twelve, FIG. 3",lesser proteinuria
same,"kidney size, treated vs controls",[6]; end of 12-week study,tended to be smaller
same,"heart weight/BW ratio, treated vs control",[6]; [8],no significant difference
same,"kidney weight/BW ratio, treated vs control",[6]; [8],no significant difference
same,"pancreas weight/BW ratio, treated vs control",[6]; [8],no significant difference
same,"serum triglycerides, PDS-treated vs controls","[6]; from onset of treatment throughout the study, p=0.002, FIG. 6A",consistently lower
same,adverse effect at the beginning of the study (little decline in body weight),"[6]; higher concentration of PDS, week 1 (avg 4270 mg/kg/day)",diarrhea
same,bodyweight of the treated vs. the control animals,"[6]; male ZDF rats, PDS in 1% sucrose drinking solution, 12 weeks, data not shown",not significant difference
same,"serum creatinine, treated vs control","[6]; satient ZDF rats, 12 weeks, FIG. 2A, stable in both groups",tendency for lower values between treatment weeks 6 and 9
same,"hyperkalemia (serum potassium), control vs treated","[6]; starting at week 7, weeks 8 to 12, p<0.001, FIG. 5",significantly more severe in the control group
same,"serum cholesterol, PDS-treated vs control","[6]; treatment week 10, FIG. 6B",significantly lower
same,serum cholesterol,"[6]; week 12, control 7.1 mmol/L, p<0.001",4.5 mmol/L
same,"uric acid levels in serum, control group relative to PDS-treated animals","[6]; weeks 6 to 12, FIG. 4A",consistently higher than values from the PDS-treated animals
same,"number of islets of Langerhans per field, treated vs controls",[7],higher number
